# In paper PMC9950431, “A bivalent remipede toxin promotes calcium release via ryanodine receptor activation” (Nature Communications, 2023):
# Tests used:
# [1] = tested on: sarcoplasmic reticulum (SR) in mouse extensor digitorum longus (EDL) fibers; assay: SR Ca2+ leak in mechanically-skinned EDL muscle fibers (total SR Ca2+ content, [CaT]SR, after 1 min leak); type: cell-based, mouse (C57/Bl6)
# Text: All experiments were approved by The University of Queensland Animal Ethics Committees. Male and female C57/Bl6 2–6-month-old mice were sacrificed by asphyxiation via CO2 exposure and the EDL muscles were rapidly excised. The EDL was pinned at resting length in a petri dish lined with Sylgard 184 (Dow Corning, Midland, MI) and immersed in paraffin oil (Ajax Chemicals, Sydney, Australia). Segments of individual fibers were mechanically skinned using jeweler’s forceps and pinned out unstretched under oil[37]–[39]. The skinned fiber was then mounted at 120% of resting length on a force transducer (Myotronic UG, Heidelberg, Germany) before transfer to a 2-ml Perspex bath containing standard K^+-based solution that broadly mimics the intracellular milieu. […] All chemicals were purchased from Sigma-Aldrich (St Louis, MO, USA) unless specified otherwise.
# Variations of the standard solution were prepared. To deplete the caffeine releasable Ca^2+ (“full release solution”), 30 mM caffeine was added, [Mg^2+] was lowered to 0.05 mM (total Mg^2+ of 2.1 mM) and free EGTA was adjusted to 0.5 mM (pCa 8.5) to chelate released Ca^2+. To measure the maximum force produced by the skinned fiber, all HDTA was replaced by EGTA (relaxing solution) or CaEGTA (maximum Ca^2+ activating solution). The relaxing solution contained 50 mM EGTA and no added Ca^2+ (pCa > 9) and the maximum Ca^2+-activating solution contained 49.5 mM Ca^2+ (pCa 4.7), with total Mg^2+ of 10.3 and 8.1 mM, respectively, to maintain the free [Mg^2+] at 1 mM. A “leak solution” was also prepared, where [Mg^2+] set at 0.1 mM (total Mg^2+ of 3.4 mM) to increase the PO of RyR and with 2 mM EGTA (pCa ~8.5) to chelate leaky Ca^2+ from the SR. […] The BAPTA solution used to pre-equilibrate fibers before lysing was similar to the standard K-HDTA solution but EGTA was replaced with 0.1–1.6 mM BAPTA[37],[39].
# The skinned fiber was then equilibrated for 20 s in a solution with a set [BAPTA] before being placed in a freshly triturated emulsion of Triton X-100 in paraffin oil (TX–oil) (10% v/v). The Ca^2+ released upon the membrane lysing rapidly binds to the known amount of BAPTA present within the fiber and to other sites, predominantly troponin C (TnC). The pre-equilibrating [BAPTA] was chosen such that the fiber produced a finite, non-maximal force response upon lysis. Pre-treatment of the fiber with “full release solution” allowed the non-SR Ca^2+ content of the skinned fiber to be assayed. The total amount of Ca^2+ present in the fiber could be calculated from the [BAPTA] in the equilibration solution and the magnitude of the force response. Data are presented as mean ± SD, with n denoting the number of fibers examined. Statistical significance (p < 0.05) was determined with One-way ANOVA.
# ryanodine receptor = target: T1, ryanodine receptor (Oryctolagus cuniculus, UniProt P11716); assay: Single channel recording, washout (Woearly, Wolate) after Xt3a, sheet "Figure 3B" (RyR isoform not given); type: biochemical
# T1 construct: skeletal SR vesicles were isolated from the back and leg muscles of mature female New Zealand white rabbits; from tissue; host or cells: rabbit back and leg skeletal muscle, sarcoplasmic reticulum vesicles
# T1 sequence (P11716 whole entry, canonical isoform): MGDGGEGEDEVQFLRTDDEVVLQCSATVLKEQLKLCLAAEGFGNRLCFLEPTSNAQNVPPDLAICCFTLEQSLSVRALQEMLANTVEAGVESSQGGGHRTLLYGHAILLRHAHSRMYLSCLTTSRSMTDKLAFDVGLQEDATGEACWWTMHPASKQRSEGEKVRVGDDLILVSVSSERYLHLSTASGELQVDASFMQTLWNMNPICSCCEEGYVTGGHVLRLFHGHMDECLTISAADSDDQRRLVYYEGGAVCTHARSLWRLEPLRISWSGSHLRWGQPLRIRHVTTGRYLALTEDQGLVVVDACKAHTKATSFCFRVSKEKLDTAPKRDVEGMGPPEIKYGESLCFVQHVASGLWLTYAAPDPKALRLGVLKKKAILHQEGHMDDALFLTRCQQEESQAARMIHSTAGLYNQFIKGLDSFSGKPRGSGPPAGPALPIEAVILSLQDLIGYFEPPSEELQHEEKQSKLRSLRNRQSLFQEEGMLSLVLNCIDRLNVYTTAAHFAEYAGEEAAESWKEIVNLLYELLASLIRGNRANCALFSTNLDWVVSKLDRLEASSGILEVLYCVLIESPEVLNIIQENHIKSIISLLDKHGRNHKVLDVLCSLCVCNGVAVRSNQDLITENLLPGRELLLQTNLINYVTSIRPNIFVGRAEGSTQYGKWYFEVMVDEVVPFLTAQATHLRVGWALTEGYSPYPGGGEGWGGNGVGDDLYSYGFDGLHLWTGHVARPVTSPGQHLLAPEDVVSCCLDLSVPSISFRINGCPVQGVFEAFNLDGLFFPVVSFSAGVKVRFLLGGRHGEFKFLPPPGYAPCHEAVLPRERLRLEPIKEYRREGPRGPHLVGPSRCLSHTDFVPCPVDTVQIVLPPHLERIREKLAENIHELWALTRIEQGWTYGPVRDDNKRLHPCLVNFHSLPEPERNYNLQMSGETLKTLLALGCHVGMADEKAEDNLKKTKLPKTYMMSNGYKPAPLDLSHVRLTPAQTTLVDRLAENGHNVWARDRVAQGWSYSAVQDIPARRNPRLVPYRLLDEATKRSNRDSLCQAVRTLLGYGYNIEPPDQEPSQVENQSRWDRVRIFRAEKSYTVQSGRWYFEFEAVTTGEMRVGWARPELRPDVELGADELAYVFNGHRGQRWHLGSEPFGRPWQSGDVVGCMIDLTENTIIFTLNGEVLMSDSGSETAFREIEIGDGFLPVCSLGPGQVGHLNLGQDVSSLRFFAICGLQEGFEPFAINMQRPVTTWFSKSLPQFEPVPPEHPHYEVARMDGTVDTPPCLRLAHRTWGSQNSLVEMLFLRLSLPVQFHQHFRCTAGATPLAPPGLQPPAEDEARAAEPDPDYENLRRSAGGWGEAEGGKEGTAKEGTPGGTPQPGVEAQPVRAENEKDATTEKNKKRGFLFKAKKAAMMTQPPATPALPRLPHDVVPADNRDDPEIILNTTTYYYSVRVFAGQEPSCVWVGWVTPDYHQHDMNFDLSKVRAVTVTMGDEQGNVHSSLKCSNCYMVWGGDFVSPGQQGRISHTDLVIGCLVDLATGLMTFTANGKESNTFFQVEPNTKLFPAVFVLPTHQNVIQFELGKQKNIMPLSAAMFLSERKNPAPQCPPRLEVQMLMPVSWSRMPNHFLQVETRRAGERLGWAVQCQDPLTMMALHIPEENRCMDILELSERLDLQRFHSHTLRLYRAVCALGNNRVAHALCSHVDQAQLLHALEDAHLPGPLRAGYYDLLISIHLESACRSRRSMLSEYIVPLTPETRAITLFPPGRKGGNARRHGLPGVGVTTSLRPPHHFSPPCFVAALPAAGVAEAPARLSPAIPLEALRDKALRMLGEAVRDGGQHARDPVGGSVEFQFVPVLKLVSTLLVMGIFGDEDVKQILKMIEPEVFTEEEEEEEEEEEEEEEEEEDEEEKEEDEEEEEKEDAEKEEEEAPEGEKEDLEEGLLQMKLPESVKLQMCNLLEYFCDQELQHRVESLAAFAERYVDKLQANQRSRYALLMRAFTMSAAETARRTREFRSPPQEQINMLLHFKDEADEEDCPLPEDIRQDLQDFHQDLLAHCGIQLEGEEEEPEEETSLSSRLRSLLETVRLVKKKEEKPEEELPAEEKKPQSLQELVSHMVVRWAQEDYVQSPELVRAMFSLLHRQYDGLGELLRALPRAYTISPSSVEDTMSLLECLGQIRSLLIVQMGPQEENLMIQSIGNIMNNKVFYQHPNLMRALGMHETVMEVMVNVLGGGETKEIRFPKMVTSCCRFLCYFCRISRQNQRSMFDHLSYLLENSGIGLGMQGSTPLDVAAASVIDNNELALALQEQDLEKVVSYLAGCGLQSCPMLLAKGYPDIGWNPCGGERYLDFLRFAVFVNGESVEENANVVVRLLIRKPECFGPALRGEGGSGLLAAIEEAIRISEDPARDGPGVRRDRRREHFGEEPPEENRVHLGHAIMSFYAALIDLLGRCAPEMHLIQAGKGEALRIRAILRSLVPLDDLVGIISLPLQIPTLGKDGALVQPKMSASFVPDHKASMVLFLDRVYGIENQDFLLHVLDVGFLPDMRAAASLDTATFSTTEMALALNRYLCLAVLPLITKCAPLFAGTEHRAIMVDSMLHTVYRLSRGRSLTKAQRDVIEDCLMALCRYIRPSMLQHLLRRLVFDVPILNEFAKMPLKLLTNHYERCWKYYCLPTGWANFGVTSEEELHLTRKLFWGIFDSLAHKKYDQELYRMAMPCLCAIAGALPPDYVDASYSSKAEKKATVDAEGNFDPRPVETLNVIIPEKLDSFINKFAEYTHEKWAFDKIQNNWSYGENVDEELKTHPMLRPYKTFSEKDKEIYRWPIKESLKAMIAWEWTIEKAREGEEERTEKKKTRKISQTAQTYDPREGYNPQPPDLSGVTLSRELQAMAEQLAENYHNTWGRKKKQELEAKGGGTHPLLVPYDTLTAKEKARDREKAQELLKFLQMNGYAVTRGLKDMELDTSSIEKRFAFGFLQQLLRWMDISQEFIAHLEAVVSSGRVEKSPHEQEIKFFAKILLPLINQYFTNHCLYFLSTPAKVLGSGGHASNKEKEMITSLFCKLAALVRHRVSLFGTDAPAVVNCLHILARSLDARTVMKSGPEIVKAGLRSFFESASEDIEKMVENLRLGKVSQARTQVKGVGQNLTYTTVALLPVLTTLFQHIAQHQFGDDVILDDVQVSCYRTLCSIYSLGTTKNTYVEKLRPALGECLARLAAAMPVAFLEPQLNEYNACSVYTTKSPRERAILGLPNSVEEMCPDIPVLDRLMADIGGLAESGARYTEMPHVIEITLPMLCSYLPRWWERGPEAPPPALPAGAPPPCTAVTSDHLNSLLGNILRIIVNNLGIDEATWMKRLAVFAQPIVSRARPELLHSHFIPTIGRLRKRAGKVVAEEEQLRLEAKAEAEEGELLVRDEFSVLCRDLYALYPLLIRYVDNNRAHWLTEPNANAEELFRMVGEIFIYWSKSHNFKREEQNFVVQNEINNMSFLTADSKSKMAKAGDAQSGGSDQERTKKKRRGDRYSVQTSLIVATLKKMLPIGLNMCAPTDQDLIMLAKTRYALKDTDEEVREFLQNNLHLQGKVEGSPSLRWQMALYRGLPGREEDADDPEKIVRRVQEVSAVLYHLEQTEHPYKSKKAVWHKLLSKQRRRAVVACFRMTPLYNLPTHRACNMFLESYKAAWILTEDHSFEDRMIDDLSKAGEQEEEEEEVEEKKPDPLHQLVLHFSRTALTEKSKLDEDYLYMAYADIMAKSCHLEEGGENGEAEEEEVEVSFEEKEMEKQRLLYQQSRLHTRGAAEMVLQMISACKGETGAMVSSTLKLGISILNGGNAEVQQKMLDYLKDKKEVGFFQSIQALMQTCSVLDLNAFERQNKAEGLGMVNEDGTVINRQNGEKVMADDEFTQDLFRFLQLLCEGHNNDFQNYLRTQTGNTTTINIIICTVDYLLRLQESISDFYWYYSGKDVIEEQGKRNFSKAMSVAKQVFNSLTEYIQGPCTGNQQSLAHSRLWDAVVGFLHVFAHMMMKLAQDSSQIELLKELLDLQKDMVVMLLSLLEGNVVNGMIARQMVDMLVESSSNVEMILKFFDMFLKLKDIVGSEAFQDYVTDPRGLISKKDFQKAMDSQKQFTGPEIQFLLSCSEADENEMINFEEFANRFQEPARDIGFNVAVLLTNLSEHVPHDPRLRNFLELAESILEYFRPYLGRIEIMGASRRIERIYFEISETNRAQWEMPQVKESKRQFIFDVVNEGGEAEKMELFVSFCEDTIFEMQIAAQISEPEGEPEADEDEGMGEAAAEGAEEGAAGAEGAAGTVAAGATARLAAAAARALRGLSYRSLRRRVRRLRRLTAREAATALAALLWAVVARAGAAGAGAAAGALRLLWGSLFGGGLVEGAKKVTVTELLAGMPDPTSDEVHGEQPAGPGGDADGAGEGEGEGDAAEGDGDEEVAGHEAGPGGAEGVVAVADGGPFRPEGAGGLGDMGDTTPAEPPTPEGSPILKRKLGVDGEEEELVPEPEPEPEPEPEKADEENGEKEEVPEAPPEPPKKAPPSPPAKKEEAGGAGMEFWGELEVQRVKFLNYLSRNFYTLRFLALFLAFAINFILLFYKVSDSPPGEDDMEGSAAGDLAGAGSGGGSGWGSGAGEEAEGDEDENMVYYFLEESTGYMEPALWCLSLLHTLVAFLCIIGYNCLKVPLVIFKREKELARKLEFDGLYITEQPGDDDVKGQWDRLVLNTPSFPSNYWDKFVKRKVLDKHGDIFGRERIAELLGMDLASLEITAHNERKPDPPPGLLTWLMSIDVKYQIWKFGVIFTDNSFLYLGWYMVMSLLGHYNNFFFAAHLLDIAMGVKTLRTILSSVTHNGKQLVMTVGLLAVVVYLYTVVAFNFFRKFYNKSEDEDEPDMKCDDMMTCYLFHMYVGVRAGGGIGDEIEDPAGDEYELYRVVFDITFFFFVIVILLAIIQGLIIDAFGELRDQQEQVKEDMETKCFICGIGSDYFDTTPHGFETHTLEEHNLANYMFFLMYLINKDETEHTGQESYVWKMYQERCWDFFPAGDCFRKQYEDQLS
# Text: Supplement 41467_2023_36579_MOESM6_ESM.xlsx, sheet "Figure 3B" | column: Woearly; Wolate
substance,measurement,setting,value
φ-Xibalbin3-Xt3a,efficiency to increase SR Ca2+ leakage (order),[1]; 10 nM,Xt3a > Xt3a-D1 ~ IpTxA > Xt3a-D2
same,depletion of [CaT]SR,"[1]; 10 nM peptide in leak solution, 1 min leak, mean ± SD, control leak 18 ± 7%",76 ± 5%
same,Relative amount of total Ca2+ left in the SR ([CaT]SR),"[1]; 10 nM peptide, 1 min leak, relative to Pre, fiber 2 of column",20.6
same,Relative amount of total Ca2+ left in the SR ([CaT]SR),"[1]; 10 nM peptide, 1 min leak, relative to Pre, fiber 3 of column",24.9
same,Relative amount of total Ca2+ left in the SR ([CaT]SR),"[1]; 10 nM peptide, 1 min leak, relative to Pre, fiber 4 of column",22.9
same,Relative amount of total Ca2+ left in the SR ([CaT]SR),"[1]; 10 nM peptide, 1 min leak, relative to Pre, fiber 5 of column",23.5
same,Relative amount of total Ca2+ left in the SR ([CaT]SR),"[1]; 10 nM peptide, 1 min leak, relative to Pre, fiber 6 of column",22.7
same,Relative amount of total Ca2+ left in the SR ([CaT]SR),"[1]; 10 nM peptide, 1 min leak, relative to Pre, fiber 7 of column",27.4
same,Relative amount of total Ca2+ left in the SR ([CaT]SR),"[1]; 10 nM peptide, 1 min leak, relative to Pre, fiber 8 of column",27.5
same,Relative amount of total Ca2+ left in the SR ([CaT]SR),"[1]; 10 nM peptide, 1 min leak, relative to Pre, fiber 9 of column",25.7
same,Relative amount of total Ca2+ left in the SR ([CaT]SR),"[1]; 10 nM peptide, 1 min leak, relative to Pre, fiber 10 of column",30.9
same,Relative amount of total Ca2+ left in the SR ([CaT]SR),"[1]; 10 nM peptide, 1 min leak, relative to Pre, fiber 11 of column",32.9
same,Relative amount of total Ca2+ left in the SR ([CaT]SR),"[1]; 10 nM peptide, 1 min leak, relative to Pre, fiber 12 of column",22.4
same,Relative amount of total Ca2+ left in the SR ([CaT]SR),"[1]; 10 nM peptide, 1 min leak, relative to Pre, fiber 13 of column",13.3
same,"Relative amount of total Ca2+ left in the SR ([CaT]SR), mean","[1]; 10 nM peptide, 1 min leak, relative to Pre, mean (n = 13 Xt3a, n = 10 others)",24.4
same,Relative amount of total Ca2+ left in the SR ([CaT]SR),"[1]; 10 nM peptide, 1 min leak, relative to [CaT]SR before the leak (Pre), fiber 1 of column",21.9
same,rel Po,"ryanodine receptor; Woearly after 10nM Xt3a vs 1 micoM Ca, CT1124n",1.432
same,rel Po,"ryanodine receptor; Woearly after 10nM Xt3a vs 1 micoM Ca, CT1124p",0.937
same,rel Po,"ryanodine receptor; Woearly after 10nM Xt3a vs 1 micoM Ca, CT1125p (r7)",0.4348
same,rel Po,"ryanodine receptor; Woearly after 10nM Xt3a vs 1 micoM Ca, CT1125p (r12)",0.3976
same,rel Po,"ryanodine receptor; Woearly after 10nM Xt3a vs 1 micoM Ca, CT1126n",1.917
same,rel Po,"ryanodine receptor; Woearly after 10nM Xt3a vs 1 micoM Ca, CT1126p",0.1557
same,rel Po,"ryanodine receptor; Woearly after 10nM Xt3a vs 1 micoM Ca, CT1129p",0.23
same,rel Po,"ryanodine receptor; Woearly after 10nM Xt3a vs 1 micoM Ca, mean of 7 records",0.7864
same,rel Po,"ryanodine receptor; Woearly after 1 microM Xt3a vs 1 micoM Ca, CT1134 n",4.4537
same,rel Po,"ryanodine receptor; Woearly after 1 microM Xt3a vs 1 micoM Ca, CT1134 p",3.797
same,rel Po,"ryanodine receptor; Woearly after 1 microM Xt3a vs 1 micoM Ca, CT1135 n",34.6466
same,rel Po,"ryanodine receptor; Woearly after 1 microM Xt3a vs 1 micoM Ca, CT1136 n",1.926
same,rel Po,"ryanodine receptor; Woearly after 1 microM Xt3a vs 1 micoM Ca, CT1136 p",1.125
same,rel Po,"ryanodine receptor; Woearly after 1 microM Xt3a vs 1 micoM Ca, CT1137 n",1.615
same,rel Po,"ryanodine receptor; Woearly after 1 microM Xt3a vs 1 micoM Ca, CT1137p",7.5
same,rel Po,"ryanodine receptor; Woearly after 1 microM Xt3a vs 1 micoM Ca, CT1138n",1
same,rel Po,"ryanodine receptor; Woearly after 1 microM Xt3a vs 1 micoM Ca, CT1138p",8.033
same,rel Po,"ryanodine receptor; Woearly after 1 microM Xt3a vs 1 micoM Ca, mean (CT1135 p cell empty)",7.122
same,rel Po,"ryanodine receptor; Wolate after 10nM Xt3a vs 1 micoM Ca, CT1124n",0.8317
same,rel Po,"ryanodine receptor; Wolate after 10nM Xt3a vs 1 micoM Ca, CT1124p",12.1926
same,rel Po,"ryanodine receptor; Wolate after 10nM Xt3a vs 1 micoM Ca, CT1125p (r7)",0.7826
same,rel Po,"ryanodine receptor; Wolate after 10nM Xt3a vs 1 micoM Ca, CT1125p (r12)",0.9398
same,rel Po,"ryanodine receptor; Wolate after 10nM Xt3a vs 1 micoM Ca, CT1126n",0.9549
same,rel Po,"ryanodine receptor; Wolate after 10nM Xt3a vs 1 micoM Ca, CT1126p",1.131
same,rel Po,"ryanodine receptor; Wolate after 10nM Xt3a vs 1 micoM Ca, CT1129p",0.13
same,rel Po,"ryanodine receptor; Wolate after 10nM Xt3a vs 1 micoM Ca, mean of 7 records",2.423
same,rel Po,"ryanodine receptor; Wolate after 1 microM Xt3a vs 1 micoM Ca, CT1134 n",20.9074
same,rel Po,"ryanodine receptor; Wolate after 1 microM Xt3a vs 1 micoM Ca, CT1134 p",6.491
same,rel Po,"ryanodine receptor; Wolate after 1 microM Xt3a vs 1 micoM Ca, CT1135 n",34.2069
same,rel Po,"ryanodine receptor; Wolate after 1 microM Xt3a vs 1 micoM Ca, CT1135 p",0.02609
same,rel Po,"ryanodine receptor; Wolate after 1 microM Xt3a vs 1 micoM Ca, CT1136 n",4.7037
same,rel Po,"ryanodine receptor; Wolate after 1 microM Xt3a vs 1 micoM Ca, CT1136 p",2
same,rel Po,"ryanodine receptor; Wolate after 1 microM Xt3a vs 1 micoM Ca, CT1137 n",0.6923
same,rel Po,"ryanodine receptor; Wolate after 1 microM Xt3a vs 1 micoM Ca, CT1137p",0.75
same,rel Po,"ryanodine receptor; Wolate after 1 microM Xt3a vs 1 micoM Ca, CT1138n",2.952
same,rel Po,"ryanodine receptor; Wolate after 1 microM Xt3a vs 1 micoM Ca, CT1138p",2.133
same,rel Po,"ryanodine receptor; Wolate after 1 microM Xt3a vs 1 micoM Ca, mean of 10 records",7.486
